Columns and labels:
[1] = system: human airway epithelial cells (Calu-3); assay: MTT cytotoxicity study in Calu-3 cells; format: cell-based; conditions: 0.1% w/v, positive control, cell line not specified in the sentence (Fig. 6A)
[2] = various storage conditions; cited from earlier work
[3] = In-vitro drug release in dialysis cassettes, PBS pH 7.4, 37°C; format: physicochemical; conditions: plain drug control in dialysis cassette, data not shown
[4] = in vivo; conditions: male, Sprague-Dawley, rat, 10 mg/kg
[5] = cited from earlier work
[6] = system: PAH patients; conditions: dose of 30 or 40 mg; cited from earlier work
[7] = system: monocrotaline (MCT)-induced PAH rats; assay: Hemodynamic studies in monocrotaline; format: in vivo, Sprague-Dawley rats; conditions: 3 mg/kg

| SMILES | Cell viability [1] [%] | Time over which the drug is stable [2] | Drug released in the media [3] [%] | bioavailability ([4]; Bioavailability (relative)) [%] | AUC(0-t) ([4]; inhaled or intranasal) [ng·h/mL] | Cmax ([4]; inhaled or intranasal) [ng/mL] | AUC(0-t) ([4]; iv) [ng·h/mL] | Cmax ([4]; iv) [ng/mL] | pKa [5] | Effect on MPAP in PAH patients [6] | Decrease in MPAP (maximal) ([7]; intratracheal) [%] | Reduction in MSAP ([7]; intratracheal) [%] | Decrease in MPAP (maximal) ([7]; intravenous) [%] | Duration of pulmonary vasodilatory effects (15% reduction in MPAP as baseline) ([7]; intravenous) [min] | Reduction in MSAP ([7]; intravenous) [%] | Duration of pulmonary vasodilatory effects (15% reduction in MPAP as baseline) ([7]; pulmonary (intratracheal)) [min] |
| --- | --- | --- | --- | --- | --- | --- | --- | --- | --- | --- | --- | --- | --- | --- | --- | --- |
| CCCCCCCCCCCCOS(=O)(=O)[O-].[Na+] [SDS, sodium dodecyl sulfate] | 15 | – | – | – | – | – | – | – | – | – | – | – | – | – | – | – |
| O=S(=O)(c1cccc2cnccc12)N1CCCNCC1 [fasudil] | – | ~ 24 weeks | 100 | ~40 | 2.33 | 66.2 ± 13.6 | 5.71 | 298 ± 10 | 9.727 | effective in reducing MPAP | 38.3±7.3 | 38.1±10.8 | 45.6±17.0 | 50.0 ± 10.4 | 45.6±8.4 | 60.0 ± 15.3 |

Source: paper PMC3632285 (Journal of controlled release : official journal of the …, 2013)
